Assay results published in ChEMBL document CHEMBL3045838, “Synthesis, antimicrobial and antioxidant activities of 2-[1-{3,5-diaryl-4,5-dihydro-1H-pyrazolenyl}]-4-(4-nitrophenyl)-[1,3]-thiazoles” (2013).
Values after ≈ are worked out from the molar mass of the structure shown.

Key:
Type in all cases: functional
Escherichia coli [1] = test: Antibacterial activity against Escherichia coli ATCC 25922 assessed as growth inhibition at 1.56 to 25 ug/mL
Escherichia coli [2] = test: microbe, parasite or virus in culture; settings: ATCC 25922
Description: Antibacterial activity against Escherichia coli ATCC 25922 assessed as growth inhibition by serial plate dilution method

Staphylococcus aureus [3] = test: Antibacterial activity against Staphylococcus aureus ATCC 25923 assessed as growth inhibition at 1.56 to 25 ug/mL
Staphylococcus aureus [4] = test: Antibacterial activity against Staphylococcus aureus ATCC 25923 assessed as growth inhibition by serial plate dilution method
[5] = system: Radical scavenging activity; test: Antioxidant activity assessed as inhibition of DPPH radical generation at 4000 ug/mL after 15 min by UV-Vis spectrophotometric analysis relative to control; settings: at 4000 µg/mL
Aspergillus fumigatus [6] = test: Antifungal activity against Aspergillus fumigatus NCIM 902 assessed as growth inhibition at 1.56 to 25 ug/mL
Aspergillus fumigatus [7] = test: Antifungal activity against Aspergillus fumigatus NCIM 902 assessed as growth inhibition by serial plate dilution method
Aspergillus flavus [8] = test: Antifungal activity against Aspergillus flavus NCIM 524 assessed as growth inhibition at 1.56 to 25 ug/mL
Aspergillus flavus [9] = test: Antifungal activity against Aspergillus flavus NCIM 524 assessed as growth inhibition by serial plate dilution method
[10] = system: Trichophyton mentagrophytes; test: Antifungal activity against Trichophyton mentagrophytes assessed as growth inhibition at 1.56 to 25 ug/mL
[11] = system: Trichophyton mentagrophytes; test: Antifungal activity against Trichophyton mentagrophytes assessed as growth inhibition by serial plate dilution method
Talaromyces marneffei [12] = test: Antifungal activity against Talaromyces marneffei assessed as growth inhibition at 1.56 to 25 ug/mL
Talaromyces marneffei [13] = test: Antifungal activity against Talaromyces marneffei assessed as growth inhibition by serial plate dilution method
Klebsiella pneumoniae [14] = test: Antibacterial activity against Klebsiella pneumoniae assessed as growth inhibition by serial plate dilution method
Klebsiella pneumoniae [15] = test: Antibacterial activity against Klebsiella pneumoniae assessed as growth inhibition at 1.56 to 25 ug/mL
Pseudomonas aeruginosa [16] = test: Antibacterial activity against Pseudomonas aeruginosa ATCC 27853 assessed as growth inhibition at 1.56 to 25 ug/mL
Pseudomonas aeruginosa [17] = test: Antibacterial activity against Pseudomonas aeruginosa ATCC 27853 assessed as growth inhibition by serial plate dilution method

Structure (SMILES)	diameter of the inhibition zone (DIZ) (Escherichia coli [1]) [mm]	MIC (Escherichia coli [2]) [µg/mL]	diameter of the inhibition zone (DIZ) (Staphylococcus aureus [3]) [mm]	MIC (Staphylococcus aureus [4]) [µg/mL]	inhibition [5] [%]	diameter of the inhibition zone (DIZ) (Aspergillus fumigatus [6]) [mm]	MIC (Aspergillus fumigatus [7]) [µg/mL]	diameter of the inhibition zone (DIZ) (Aspergillus flavus [8]) [mm]	MIC (Aspergillus flavus [9]) [µg/mL]	diameter of the inhibition zone (DIZ) [10] [mm]	MIC [11] [µg/mL]	diameter of the inhibition zone (DIZ) (Talaromyces marneffei [12]) [mm]	MIC (Talaromyces marneffei [13]) [µg/mL]	MIC (Klebsiella pneumoniae [14]) [µg/mL]	diameter of the inhibition zone (DIZ) (Klebsiella pneumoniae [15]) [mm]	diameter of the inhibition zone (DIZ) (Pseudomonas aeruginosa [16]) [mm]	MIC (Pseudomonas aeruginosa [17]) [µg/mL]
COc1ccc(C2=NN(c3nc(-c4ccc([N+](=O)[O-])cc4)cs3)C(c3ccc(-c4ccc(F)c(Cl)c4)o3)C2)cc1OC (stereo not given)	16	6.25 (≈ 10.3 µM)	16	6.25 (≈ 10.3 µM)	74	16	6.25 (≈ 10.3 µM)	16	6.25 (≈ 10.3 µM)	16	6.25 (≈ 10.3 µM)	16	6.25 (≈ 10.3 µM)	6.25 (≈ 10.3 µM)	16	16	6.25 (≈ 10.3 µM)
O=C1O[C@H]([C@@H](O)CO)C(O)=C1O	–	–	–	–	96	–	–	–	–	–	–	–	–	–	–	–	–
CCC(C)n1ncn(-c2ccc(N3CCN(c4ccc(OCC5COC(Cn6cncn6)(c6ccc(Cl)cc6Cl)O5)cc4)CC3)cc2)c1=O (stereo not given) [ITRACONAZOLE]	–	–	–	–	–	30	6.25 (≈ 8.86 µM)	22	1.56 (≈ 2.21 µM)	23	6.25 (≈ 8.86 µM)	25	6.25 (≈ 8.86 µM)	–	–	–	–
COc1ccc(C2=NN(c3nc(-c4ccc([N+](=O)[O-])cc4)cs3)C(c3ccc(-c4cc(Cl)c(Cl)cc4Cl)o3)C2)cc1OC (stereo not given)	16	6.25 (≈ 9.53 µM)	16	6.25 (≈ 9.53 µM)	57	16	6.25 (≈ 9.53 µM)	16	6.25 (≈ 9.53 µM)	16	6.25 (≈ 9.53 µM)	16	6.25 (≈ 9.53 µM)	6.25 (≈ 9.53 µM)	16	16	6.25 (≈ 9.53 µM)
CSc1ccc(C2CC(c3ccc(Cl)cc3Cl)=NN2c2nc(-c3ccc([N+](=O)[O-])cc3)cs2)cc1 (stereo not given)	16	6.25 (≈ 11.5 µM)	16	6.25 (≈ 11.5 µM)	88	16	6.25 (≈ 11.5 µM)	16	6.25 (≈ 11.5 µM)	16	6.25 (≈ 11.5 µM)	16	6.25 (≈ 11.5 µM)	6.25 (≈ 11.5 µM)	16	16	6.25 (≈ 11.5 µM)
COc1ccc(-c2ccc(C3CC(c4ccc(OC)c(OC)c4)=NN3c3nc(-c4ccc([N+](=O)[O-])cc4)cs3)o2)c([N+](=O)[O-])c1 (stereo not given)	11	12.5 (≈ 19.9 µM)	11	12.5 (≈ 19.9 µM)	86	11	12.5 (≈ 19.9 µM)	11	12.5 (≈ 19.9 µM)	11	12.5 (≈ 19.9 µM)	11	12.5 (≈ 19.9 µM)	12.5 (≈ 19.9 µM)	11	11	12.5 (≈ 19.9 µM)
COc1ccc(C2=NN(c3nc(-c4ccc([N+](=O)[O-])cc4)cs3)C(c3ccc(-c4ccc(Cl)cc4Cl)o3)C2)cc1OC (stereo not given)	16	6.25 (≈ 10.1 µM)	16	6.25 (≈ 10.1 µM)	86	16	6.25 (≈ 10.1 µM)	16	6.25 (≈ 10.1 µM)	16	6.25 (≈ 10.1 µM)	16	6.25 (≈ 10.1 µM)	6.25 (≈ 10.1 µM)	16	16	6.25 (≈ 10.1 µM)
COc1ccc(C2=NN(c3nc(-c4ccc([N+](=O)[O-])cc4)cs3)C(c3ccc(-c4ccc(Br)cc4)o3)C2)cc1OC (stereo not given)	11	12.5 (≈ 19.8 µM)	11	12.5 (≈ 19.8 µM)	69	11	12.5 (≈ 19.8 µM)	11	12.5 (≈ 19.8 µM)	11	12.5 (≈ 19.8 µM)	11	12.5 (≈ 19.8 µM)	12.5 (≈ 19.8 µM)	11	11	12.5 (≈ 19.8 µM)
O=[N+]([O-])c1ccc(-c2csc(N3N=C(c4ccccc4)CC3c3ccc(-c4ccc(Cl)cc4)o3)n2)cc1 (stereo not given)	11	12.5 (≈ 23.7 µM)	11	12.5 (≈ 23.7 µM)	45	11	12.5 (≈ 23.7 µM)	11	12.5 (≈ 23.7 µM)	11	12.5 (≈ 23.7 µM)	11	12.5 (≈ 23.7 µM)	12.5 (≈ 23.7 µM)	11	11	12.5 (≈ 23.7 µM)
COc1ccc(C2=NN(c3nc(-c4ccc([N+](=O)[O-])cc4)cs3)C(c3ccc(-c4c(C)cccc4[N+](=O)[O-])o3)C2)cc1OC (stereo not given)	11	12.5 (≈ 20.4 µM)	11	12.5 (≈ 20.4 µM)	66	11	12.5 (≈ 20.4 µM)	11	12.5 (≈ 20.4 µM)	11	12.5 (≈ 20.4 µM)	11	12.5 (≈ 20.4 µM)	12.5 (≈ 20.4 µM)	11	11	12.5 (≈ 20.4 µM)
CSc1ccc(C2CC(c3ccc([N+](=O)[O-])cc3)=NN2c2nc(-c3ccc([N+](=O)[O-])cc3)cs2)cc1 (stereo not given)	< 10	25 (≈ 48.3 µM)	< 10	25 (≈ 48.3 µM)	75	< 10	25 (≈ 48.3 µM)	< 10	25 (≈ 48.3 µM)	< 10	25 (≈ 48.3 µM)	< 10	25 (≈ 48.3 µM)	25 (≈ 48.3 µM)	< 10	< 10	25 (≈ 48.3 µM)
CC1(C)S[C@@H]2[C@H](NC(=O)[C@H](N)c3ccccc3)C(=O)N2[C@H]1C(=O)O [AMPICILLIN]	30	6.25 (≈ 17.9 µM)	22	1.56 (≈ 4.46 µM)	–	–	–	–	–	–	–	–	–	6.25 (≈ 17.9 µM)	23	25	6.25 (≈ 17.9 µM)
